Test results: PubChem BioAssay AID1259407 (Chemical Carcinogenesis Research Information System (CCRIS), 2018)
The source made the active and inactive calls. The rule behind the calls is not given here.

System: CCRIS mutagenicity, Ames/micronucleus/aberration tests
Test: CCRIS mutagenicity studies

**Q.** `C=C(C)C` was tested. Which mutagenic call (Test System: AMES SALMONELLA TYPHIMURIUM, Strain/Indicator: TA97, Metabolic Activation: HAMSTER LIVER S-9, AROCLOR 1254 (10% OR 30%), Method: DESICCATOR) did it give?
**A.** inactive; negative

**Q.** And the mutagenic call (Test System: AMES SALMONELLA TYPHIMURIUM, Strain/Indicator: TA97, Metabolic Activation: NONE, Method: DESICCATOR)?
**A.** inactive; negative

**Q.** What about the mutagenic call (Test System: AMES SALMONELLA TYPHIMURIUM, Strain/Indicator: TA97, Metabolic Activation: RAT LIVER S-9, AROCLOR 1254 (10% OR 30%), Method: DESICCATOR) of the same molecule?
**A.** inactive; negative

**Q.** What about the mutagenic call (Test System: AMES SALMONELLA TYPHIMURIUM, Strain/Indicator: TA98, Metabolic Activation: HAMSTER LIVER S-9, AROCLOR 1254 (10% OR 30%), Method: DESICCATOR) of the same molecule?
**A.** inactive; negative

**Q.** And the mutagenic call (Test System: AMES SALMONELLA TYPHIMURIUM, Strain/Indicator: TA98, Metabolic Activation: NONE)?
**A.** inactive; negative

**Q.** What about the mutagenic call (Test System: AMES SALMONELLA TYPHIMURIUM, Strain/Indicator: TA98, Metabolic Activation: NONE, Method: DESICCATOR) of the same molecule?
**A.** inactive; negative

**Q.** What about the mutagenic call (Test System: AMES SALMONELLA TYPHIMURIUM, Strain/Indicator: TA98, Metabolic Activation: NONE, Method: GAS EXPOSURE) of the same molecule?
**A.** inactive; negative

**Q.** And the mutagenic call (Test System: AMES SALMONELLA TYPHIMURIUM, Strain/Indicator: TA98, Metabolic Activation: RAT LIVER S-9, AROCLOR 1254 (10% OR 30%), Method: DESICCATOR)?
**A.** inactive; negative

**Q.** And the mutagenic call (Test System: AMES SALMONELLA TYPHIMURIUM, Strain/Indicator: TA98, Metabolic Activation: RAT LIVER S-9, PHENOBARBITAL AND BETA-NAPHTHOFLAVONE (40%), Method: GAS EXPOSURE)?
**A.** inactive; negative

**Q.** And the mutagenic call (Test System: AMES SALMONELLA TYPHIMURIUM, Strain/Indicator: TA98, Metabolic Activation: RAT, LIVER, S-9, KC 500)?
**A.** inactive; negative

**Q.** What about the mutagenic call (Test System: AMES SALMONELLA TYPHIMURIUM, Strain/Indicator: TA100, Metabolic Activation: HAMSTER LIVER S-9, AROCLOR 1254 (10% OR 30%), Method: DESICCATOR) of the same molecule?
**A.** inactive; negative

**Q.** What about the mutagenic call (Test System: AMES SALMONELLA TYPHIMURIUM, Strain/Indicator: TA100, Metabolic Activation: NONE) of the same molecule?
**A.** inactive; negative

**Q.** And the mutagenic call (Test System: AMES SALMONELLA TYPHIMURIUM, Strain/Indicator: TA100, Metabolic Activation: NONE, Method: DESICCATOR)?
**A.** inactive; negative

**Q.** What about the mutagenic call (Test System: AMES SALMONELLA TYPHIMURIUM, Strain/Indicator: TA100, Metabolic Activation: NONE, Method: FLASK ASSAY) of the same molecule?
**A.** inactive; negative

**Q.** What about the mutagenic call (Test System: AMES SALMONELLA TYPHIMURIUM, Strain/Indicator: TA100, Metabolic Activation: NONE, Method: GAS EXPOSURE) of the same molecule?
**A.** inactive; negative

**Q.** What about the mutagenic call (Test System: AMES SALMONELLA TYPHIMURIUM, Strain/Indicator: TA100, Metabolic Activation: RAT LIVER S-9, AROCLOR 1254 (10% OR 30%), Method: DESICCATOR) of the same molecule?
**A.** inactive; negative

**Q.** What about the mutagenic call (Test System: AMES SALMONELLA TYPHIMURIUM, Strain/Indicator: TA100, Metabolic Activation: RAT LIVER S-9, PHENOBARBITAL AND BETA-NAPHTHOFLAVONE (40%), Method: GAS EXPOSURE) of the same molecule?
**A.** inactive; negative

**Q.** What about the mutagenic call (Test System: AMES SALMONELLA TYPHIMURIUM, Strain/Indicator: TA100, Metabolic Activation: RAT, LIVER, S-9, KC 500) of the same molecule?
**A.** inactive; negative

**Q.** And the mutagenic call (Test System: AMES SALMONELLA TYPHIMURIUM, Strain/Indicator: TA102, Metabolic Activation: NONE, Method: FLASK ASSAY)?
**A.** inactive; negative

**Q.** What about the mutagenic call (Test System: AMES SALMONELLA TYPHIMURIUM, Strain/Indicator: TA1535, Metabolic Activation: HAMSTER LIVER S-9, AROCLOR 1254 (10% OR 30%), Method: DESICCATOR) of the same molecule?
**A.** inactive; negative

**Q.** And the mutagenic call (Test System: AMES SALMONELLA TYPHIMURIUM, Strain/Indicator: TA1535, Metabolic Activation: NONE)?
**A.** inactive; negative

**Q.** And the mutagenic call (Test System: AMES SALMONELLA TYPHIMURIUM, Strain/Indicator: TA1535, Metabolic Activation: NONE, Method: DESICCATOR)?
**A.** inactive; negative

**Q.** And the mutagenic call (Test System: AMES SALMONELLA TYPHIMURIUM, Strain/Indicator: TA1535, Metabolic Activation: NONE, Method: FLASK ASSAY)?
**A.** inactive; negative

**Q.** What about the mutagenic call (Test System: AMES SALMONELLA TYPHIMURIUM, Strain/Indicator: TA1535, Metabolic Activation: NONE, Method: GAS EXPOSURE) of the same molecule?
**A.** inactive; negative

**Q.** What about the mutagenic call (Test System: AMES SALMONELLA TYPHIMURIUM, Strain/Indicator: TA1535, Metabolic Activation: RAT LIVER S-9, AROCLOR 1254 (10% OR 30%), Method: DESICCATOR) of the same molecule?
**A.** inactive; negative

**Q.** And the mutagenic call (Test System: AMES SALMONELLA TYPHIMURIUM, Strain/Indicator: TA1535, Metabolic Activation: RAT LIVER S-9, PHENOBARBITAL AND BETA-NAPHTHOFLAVONE (40%), Method: GAS EXPOSURE)?
**A.** inactive; negative

**Q.** What about the mutagenic call (Test System: AMES SALMONELLA TYPHIMURIUM, Strain/Indicator: TA1535, Metabolic Activation: RAT, LIVER, S-9, KC 500) of the same molecule?
**A.** inactive; negative

**Q.** What about the mutagenic call (Test System: AMES SALMONELLA TYPHIMURIUM, Strain/Indicator: TA1537, Metabolic Activation: NONE) of the same molecule?
**A.** inactive; negative

**Q.** What about the mutagenic call (Test System: AMES SALMONELLA TYPHIMURIUM, Strain/Indicator: TA1537, Metabolic Activation: NONE, Method: GAS EXPOSURE) of the same molecule?
**A.** inactive; negative

**Q.** And the mutagenic call (Test System: AMES SALMONELLA TYPHIMURIUM, Strain/Indicator: TA1537, Metabolic Activation: RAT LIVER S-9, PHENOBARBITAL AND BETA-NAPHTHOFLAVONE (40%), Method: GAS EXPOSURE)?
**A.** inactive; negative

**Q.** What about the mutagenic call (Test System: AMES SALMONELLA TYPHIMURIUM, Strain/Indicator: TA1537, Metabolic Activation: RAT, LIVER, S-9, KC 500) of the same molecule?
**A.** inactive; negative

**Q.** And the mutagenic call (Test System: AMES SALMONELLA TYPHIMURIUM, Strain/Indicator: TA1538, Metabolic Activation: NONE)?
**A.** inactive; negative

**Q.** What about the mutagenic call (Test System: AMES SALMONELLA TYPHIMURIUM, Strain/Indicator: TA1538, Metabolic Activation: RAT, LIVER, S-9, KC 500) of the same molecule?
**A.** inactive; negative

**Q.** And the mutagenic call (Test System: E. COLI, Strain/Indicator: WP2 UVRA, Metabolic Activation: NONE)?
**A.** inactive; negative

**Q.** What about the mutagenic call (Test System: E. COLI, Strain/Indicator: WP2 UVRA, Metabolic Activation: RAT, LIVER, S-9, KC 500) of the same molecule?
**A.** inactive; negative

**Q.** And the mutagenic call (Test System: E.COLI, Strain/Indicator: WP2UVRA, Metabolic Activation: NONE, Method: GAS EXPOSURE)?
**A.** inactive; negative

**Q.** And the mutagenic call (Test System: E.COLI, Strain/Indicator: WP2UVRA, Metabolic Activation: RAT LIVER S-9, PHENOBARBITAL AND BETA-NAPHTHOFLAVONE (40%), Method: GAS EXPOSURE)?
**A.** inactive; negative

**Q.** Which results are given for `CC(Cl)c1ccccc1` (stereo unspecified)?
**A.** mutagenic call (Test System: AMES SALMONELLA TYPHIMURIUM, Strain/Indicator: TA98, Metabolic Activation: NONE, Method: STANDARD PLATE): inactive; negative; mutagenic call (Test System: AMES SALMONELLA TYPHIMURIUM, Strain/Indicator: TA100, Metabolic Activation: NONE, Method: STANDARD PLATE): inactive; negative

**Q.** How did the mutagenic call (End Point: IN VITRO CHROMOSOMAL ABERRATIONS, Test System: CHO, Metabolic Activation: NONE) turn out when `CC(O)COC(C)(C)C` (stereo unspecified) was run?
**A.** inactive; negative

**Q.** And the mutagenic call (End Point: IN VITRO CHROMOSOMAL ABERRATIONS, Test System: CHO, Metabolic Activation: S-9)?
**A.** inactive; negative

**Q.** What about the mutagenic call (End Point: IN VIVO MICRONUCLEUS, Test System: PERIPHERAL BLOOD ERYTHROCYTES, Species: MOUSE, Strain/Sex: B6C3F1/FEMALE, Route: INHALATION) of the same molecule?
**A.** active; positive (weak)

**Q.** What about the mutagenic call (End Point: IN VIVO MICRONUCLEUS, Test System: PERIPHERAL BLOOD ERYTHROCYTES, Species: MOUSE, Strain/Sex: B6C3F1/MALE, Route: INHALATION) of the same molecule?
**A.** inactive; negative

**Q.** And the mutagenic call (Test System: AMES SALMONELLA TYPHIMURIUM, Strain/Indicator: TA97, Metabolic Activation: HAMSTER, LIVER, S-9 (30%), AROCLOR 1254, Method: PREINCUBATION)?
**A.** inactive; negative

**Q.** And the mutagenic call (Test System: AMES SALMONELLA TYPHIMURIUM, Strain/Indicator: TA97, Metabolic Activation: NONE, Method: PREINCUBATION)?
**A.** active; positive

**Q.** And the mutagenic call (Test System: AMES SALMONELLA TYPHIMURIUM, Strain/Indicator: TA97, Metabolic Activation: RAT, LIVER, S-9 (30%), AROCLOR 1254, Method: PREINCUBATION)?
**A.** inactive; negative

**Q.** And the mutagenic call (Test System: AMES SALMONELLA TYPHIMURIUM, Strain/Indicator: TA98, Metabolic Activation: HAMSTER, LIVER, S-9 (30%), AROCLOR 1254, Method: PREINCUBATION)?
**A.** inactive; negative

**Q.** What about the mutagenic call (Test System: AMES SALMONELLA TYPHIMURIUM, Strain/Indicator: TA98, Metabolic Activation: NONE, Method: PREINCUBATION) of the same molecule?
**A.** inactive; negative

**Q.** What about the mutagenic call (Test System: AMES SALMONELLA TYPHIMURIUM, Strain/Indicator: TA98, Metabolic Activation: RAT, LIVER, S-9 (30%), AROCLOR 1254, Method: PREINCUBATION) of the same molecule?
**A.** inactive; negative

**Q.** What about the mutagenic call (Test System: AMES SALMONELLA TYPHIMURIUM, Strain/Indicator: TA100, Metabolic Activation: HAMSTER, LIVER, S-9 (30%), AROCLOR 1254, Method: PREINCUBATION) of the same molecule?
**A.** inactive; negative

**Q.** And the mutagenic call (Test System: AMES SALMONELLA TYPHIMURIUM, Strain/Indicator: TA100, Metabolic Activation: NONE, Method: PREINCUBATION)?
**A.** inactive; negative

**Q.** What about the mutagenic call (Test System: AMES SALMONELLA TYPHIMURIUM, Strain/Indicator: TA100, Metabolic Activation: RAT, LIVER, S-9 (30%), AROCLOR 1254, Method: PREINCUBATION) of the same molecule?
**A.** inactive; negative

**Q.** And the mutagenic call (Test System: AMES SALMONELLA TYPHIMURIUM, Strain/Indicator: TA1535, Metabolic Activation: HAMSTER, LIVER, S-9 (30%), AROCLOR 1254, Method: PREINCUBATION)?
**A.** inactive; negative

**Q.** What about the mutagenic call (Test System: AMES SALMONELLA TYPHIMURIUM, Strain/Indicator: TA1535, Metabolic Activation: NONE, Method: PREINCUBATION) of the same molecule?
**A.** inactive; negative

**Q.** What about the mutagenic call (Test System: AMES SALMONELLA TYPHIMURIUM, Strain/Indicator: TA1535, Metabolic Activation: RAT, LIVER, S-9 (30%), AROCLOR 1254, Method: PREINCUBATION) of the same molecule?
**A.** inactive; negative

**Q.** And the mutagenic call (Test System: AMES SALMONELLA TYPHIMURIUM, Strain/Indicator: TA1537, Metabolic Activation: NONE, Method: PREINCUBATION)?
**A.** inactive; negative
